Laboratory results: patent publication US7579180B2, “Beta secretase polypeptides” (Amgen Inc., priority 1999, dated 2009)

Key:
[1] = molecular target: T1, human beta-secretase-Fc fusion (Homo sapiens, UniProt P56817); test: Beta-secretase activity assay: cleavage of DNP-labeled APP peptides, HPLC; type: biochemical; details: peptide substrate 20 μM, pH 5.0, about 6 hours, room temperature; FIG. 11
T1 construct: A plasmid containing cDNA encoding amino acids 1-460 of beta-secretase fused to the Fc portion of human IgG; made in house; host or cells: human embryonic kidney 293T cells, stably transfected; purified from conditioned medium on protein A
Description: FIG. 11 is a graph depicting the ability of human beta-secretase-Fc fusion to cleave various APP peptides. The X-axis is the amount of enzyme in the reaction mixture and the Y-axis is the amount of cleavage (denoted as pmol product formed) of each of three substrate peptides. “Sw” refers to the APP peptide with the Swedish mutation; “Wt” refers to wild type APP peptide; and “MV” refers to a mutated APP peptide.
Recombinant native as well as mutant beta secretase polypeptides were assayed for activity by measuring the ability of the molecule to cleave various A-beta peptides.
Each assay was conducted as follows. […] Quenched reactions were analyzed by HPLC on a 5 μm, C18 reversed-phase column (Sephasil Peptide, 4.6×100 mm; Amersham Pharmacia Biotech, Piscataway, N.J.) using first a linear gradient of 18-31.5 percent acetonitrile in 0.1 percent TFA over 40 minutes, then 31.5-81 percent acetonitrile for 1 minute, then 81 percent acetonitrile for 4 minutes, and then returning to 18-percent acetonitrile for several minutes to reequilibrate the column. […] Proteolysis of the Sw and WT octapeptides was evaluated using a linear gradient of 27-37.8 percent acetonitrile over 24 minutes on the same column.
Both product and substrate were monitored by absorbance at 360 nm. […]
The concentration of standard was determined from the extinction coefficient of DNP (e365nm=16 mM^−1cm^−1). […]

293T-APPsw101 cell line [2] = test: Assay for total beta amyloid peptide in medium of transfected cells; type: cell-based, human; details: Single Clone; diluted 1:10 into pCMVi vector DNA; average of duplicate transfections
Description: (§1) A duplicate of each master cDNA 96 well plate was prepared. Each well of the duplicate plate contained about 75 microliters of Optimem I medium (Life Technologies Inc, Gaithersburg, Md.) and about 300 ng of cDNA library. About 75 microliters of a mixture of 12 microliters DMRIE-C Lipid per ml of Optimem I medium (Life Technologies Inc., Gaithersburg, Md.) was added to each well of the 96 well plate using a Multipette (Sagian Inc. Indianapolis, Ind.) robotic pipettor. The DMRIE C was allowed to complex for about 30 minutes. Meanwhile, the media was removed from a 96 well dish in which each well had been plated with about 15,000 cells/well of the 293T-APPsw 101 cell line two days before. About 125 microliters of the DNA/Lipid complex was added to each well of cells. The cells containing the DNA/lipid mixture were then incubated at 37 degrees C., 5 percent CO2 for about five hours. After incubation, 125 μl Optimem I supplemented with 20 percent FBS and 2× Penicillin/Streptomycin (0.1 unit/ml Penicillin, 0.1 μg/ml Streptomycin) (Life Technologies Inc., Gaithersburg, Md.) was added to stop the transfection. […] The medium from each well was then harvested, diluted 1:1 in Superblock (Pierce Inc., Rockford, Ill.), stamped into pre-coated ELISA plates and analyzed for the presence of A-beta as described below. […]

293T-APPsw101 cell line [3] = test: Assay for the 42 amino acid form of A-beta in medium of transfected cells; type: cell-based, human; details: Single Clone
Description: as §1

T1 sequence (P56817 with tags, fused parts or gaps limits assumed): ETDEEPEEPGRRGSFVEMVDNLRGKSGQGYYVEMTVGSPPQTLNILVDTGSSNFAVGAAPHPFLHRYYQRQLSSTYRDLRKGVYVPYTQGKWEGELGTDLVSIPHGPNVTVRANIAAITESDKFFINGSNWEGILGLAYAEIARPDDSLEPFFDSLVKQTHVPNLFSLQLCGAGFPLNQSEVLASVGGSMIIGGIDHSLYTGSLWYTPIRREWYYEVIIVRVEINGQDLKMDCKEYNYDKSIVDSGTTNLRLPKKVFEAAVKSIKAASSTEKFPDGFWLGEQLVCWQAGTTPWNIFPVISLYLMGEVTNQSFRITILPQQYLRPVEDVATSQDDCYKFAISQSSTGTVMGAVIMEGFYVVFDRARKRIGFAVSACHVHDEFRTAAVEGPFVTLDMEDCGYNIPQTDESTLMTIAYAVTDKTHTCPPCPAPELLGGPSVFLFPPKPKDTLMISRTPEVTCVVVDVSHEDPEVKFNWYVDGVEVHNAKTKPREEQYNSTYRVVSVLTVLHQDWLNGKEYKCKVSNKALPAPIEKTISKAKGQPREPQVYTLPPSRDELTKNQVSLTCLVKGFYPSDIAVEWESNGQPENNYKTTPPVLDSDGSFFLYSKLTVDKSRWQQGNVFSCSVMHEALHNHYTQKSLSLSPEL

Substance | cleavage of substrate peptide (pmol product formed), preference by the enzyme [1] | Total (293T-APPsw101 cell line [2]) | A-beta 42/Total (293T-APPsw101 cell line [3]) | A-beta 42 (293T-APPsw101 cell line [3]; diluted 1:10 into pCMVi vector DNA, average of duplicate transfections)
EVNLDAEF [Sw] | clearly preferred by the enzyme over the wild type (Wt) substrate | – | – | –
EVKMDAEF [Wt] | preferred over the methionine to valine mutant (MV) substrate | – | – | –
Single Clone (β-Secretase): single cDNA clone from pool A-11 encoding human beta-secretase (SEQ ID NO:1) | – | 295,438 total Europium counts | 1.1 | 327,505 total Europium counts
